In series [1] the test system is human immunodeficiency virus. The conditions noted are these: cited from earlier work; for inhibition of viral replication: in vitro.
Series [2] deals with HIV-1zmb high/rapid strain. Kind of series: Indirect immunofluorescence (IF), HIV-specific antigens on infected cells. The series is classed as cell-based. Conditions: 3rd day after infecting. The source says:
(§1) In all experiments the suspensional T-lymphoblastoid cell line MT-4 was used. Passages have been carried out every three days for achieving the initial cell concentration at about 4-5·10^5 cells ml^−1.
(§2) HIV-1zmb high/rapid strain with the titer more than 6.0 log TCID50 isolated in Belarus has been used in the tests.
(§3) The tests have been carried out under therapeutic circuit when the testing compound and virus were put into the cell culture simultaneously.
The indirect immunofluorescence assay is a useful means for determining the number of cells productively infected with HIV [Johnson V. A., Byington R. E. HIV indirect immunofluorescence assay. In “Techniques in HIV Research”: Stockton Press, 1990. P. 87-91]. This assay is quantitative and can be done using living cells. The technique gives the possibility to determine HIV-specific antigens expressed on cell surface membranes of the virus-infected cells. On the 3rd day after infecting, cells have been transferred onto wells of the laminated multiwell slides and fixed by cold (4° C.) acetone. Then the samples with fixed cells were treated by HIV-1-seropositive serum and then by FTC-conjugated sheep anti-human IgG. The resulting effect was estimated via evaluation of percentage of positive cells that was calculated using fluorescent microscope and taking into account 200 cells. […]

The conditions of series [3]: prolonged and chronic experiments; cited from earlier work.
For another series, the system named is rats. The conditions noted are these: acute toxicity; cited from earlier work.
Series [4] concerns HIV-1zmb high/rapid strain. Kind of series: In vitro anti-HIV activity in infected cell culture (overall, three tests). In kind it is cell-based.
Source text: as §1, §2, §3

The next series relates to Siberian sturgeon fry. The conditions noted are these: Siberian sturgeon fry treated with solution; cited from earlier work.
The test system of the next series is mice. Conditions: acute toxicity; cited from earlier work.

These results are taken from patent US20040253289A1, “Natural plant compound with anti-HIV activity” (MIKONIK TECHNOLOGIES, LTD., priority 2004, published 2004).

With `C[C@H](CCCC(C)(C)O)[C@H]1CC[C@H]2[C@@H]3[C@@H](O)C=C4C[C@@H](O)CC[C@]4(C)[C@H]3CC[C@]12C` [7β,25-dihydroxycholesterol], the “antiviral concentration, fold lower than the highest concentration tested at which no toxicity was measurable” value in series [1] (HIV replication in vitro) was 13- to 25 fold. In series [1], the “inhibition of viral replication” value is listed as “inhibited viral replication at micromolar concentrations”.
As to `CC(C)CCC[C@@H](C)[C@H]1CC[C@H]2[C@@H]3[C@@H](O)C=C4C[C@@H](O)CC[C@]4(C)[C@H]3CC[C@]12C` [7β-hydroxycholesterol], in series [1], the “inhibition of viral replication” value is recorded as “inhibited viral replication at micromolar concentrations”.
For `CC(C)[C@@H](C)[C@@H](O)[C@H](O)[C@@H](C)[C@H]1CC[C@H]2[C@@H]3COC(=O)[C@H]4C[C@H](O)[C@H](O)C[C@]4(C)[C@H]3CC[C@]12C` [24-epibrassinolide], the “production of viral-specific antigens on the cell's surface” value in series [2] is “significantly decreased production of viral-specific antigens”. For the same compound, the postponed negative effects entry in series [3] is “no postponed negative effects”. Further, the LD50 entry in the series on rats was “more than 2000 mg·kg^−1”. Further, the “amount of the living cells in the infected culture, higher in comparison with untreated control” value in series [4] (4-5th days after infecting) is “more than 50%”. Moreover, in series [4] (each test done in three repetitions, listed as EBI), the “average efficient concentration as anti-HIV agent in vitro” value amounted to 10 ng/mL. Also, in the series with Siberian sturgeon fry, the “increase of bacteriolytic activity of lysozyme in comparison with the control fish” value was “up to 50%” and the “γ-globulin level higher than in the control” value is 10 to 65%. In addition, the LD50 entry with mice is “more than 1000 mg·kg^−1”.
Regarding `C[C@H](CCCC(C)(C)O)[C@H]1CC[C@H]2[C@@H]3CC=C4C[C@@H](O)CC[C@]4(C)[C@H]3CC[C@]12C` [25-hydroxycholesterol], the “inhibition of viral replication” value in series [1] was “inhibited viral replication at micromolar concentrations”.
